Laboratory results: patent publication US20130310326A1, “Histatin for Corneal Wound Healing and Ocular Surface Disease” (RAPID PATHOGEN SCREENING, INC., priority 2012, published 2013)

System: corneal wounds (epithelial defects in the right eye)
Assay: Corneal wound healing in rabbits (epithelial defect, fluorescein staining, computerized area determination)
Format: in vivo, New Zealand White rabbits
Settings: for Percentage of 1 hour post wound size: approximate, without standard deviation
Method: The study disclosed herein evaluates and quantifies the wound healing effects of histatins on the ocular surface of New Zealand White rabbits.
Epithelial defects are created in the right eye (oculus dexter, OD) of 12 New Zealand White rabbits. Due to animal regulations, bilateral wounding is not permitted. After the epithelial defects are made, the rabbits are randomized into treatment groups. Two (2) groups are treated with different cyclized histatin concentrations: 0.1 μg/ml and 10 μg/ml dissolved into an ophthalmic artificial tear preparation and delivered to the rabbits as an eye drop three times daily. Histatins known in the art, including, but not limited to, amino acid SEQ. ID. NOs. 1 through 33, which include Hst-1 (SEQ. ID. NO. 4), Hst-2 (SEQ. ID. NO. 5), Hst-3 (SEQ. ID. NO. 6), Hst-5 (SEQ. ID. NO. 30), and sortase cyclized histatin (SEQ. ID. NO. 33), may be used in these studies or in treatment protocols. […] This control group should receive the same vehicle identical to the other two groups but without histatin. An over-the-counter artificial tear preferably serves as the vehicle. The initial study included four (4) animals/group in three (3) groups, for a total of twelve rabbits.
Each rabbit group is preferably given moxifloxicin treatment to prevent infection.
The corneal wounds are then evaluated daily for the corneal wound healing abilities of histatin via fluorescein staining, fluorescent slit lamp biomicrophotography and computerized area determination. Evaluators are masked to the therapeutic treatment given to the rabbits. After healing, two (2) animals from each group are euthanized, and the corneas collected for histological processing (H&E staining with subsequent evaluation by veterinary histopathologist). The decision to perform histopathologic analysis after tissue procurement is made only if there is proven difference in healing between the different treatment groups and the controls. At study termination (study preferably continues for seven days), the remaining animals are euthanized.
The histatin used in this study was cyclized histatin 1. The histatin 1 used was a sortase cyclized histatin with amino acid SEQ. ID. NO.

## cyclo(DNLPETGGDSHEKRHHGYRRKFHEKHHSHREFPFYGDYGSNYLY) [cyclized histatin 1]
0.1 μg/ml eye drop three times daily, 0 hours post wound
  corneal wound size: 112.7 ± 37.8 mm^2
0.1 μg/ml eye drop three times daily, 6 hours post wound
  corneal wound size: 96.2 ± 13.6 mm^2
0.1 μg/ml eye drop three times daily, 24 hours post wound
  corneal wound size: 77.5 ± 25.0 mm^2
0.1 μg/ml eye drop three times daily, 30 hours post wound
  corneal wound size: 48.8 ± 8.0 mm^2
0.1 μg/ml eye drop three times daily, 48 hours post wound
  corneal wound size: 2.7 ± 3.1 mm^2
0.1 μg/ml eye drop three times daily, 54 hours post wound
  corneal wound size: 0.00 ± 0.00 mm^2
0.1 μg/ml eye drop three times daily, 72 hours post wound
  corneal wound size: 0.00 ± 0.00 mm^2
0.1 μg/ml or 10 μg/ml versus vehicle control, rabbits
  healing activity of corneal wounds versus control: significant dose dependent accelerated healing activity
0.1 ug/ml, 0 hours post wound
  Percentage of 1 hour post wound size: 100%
0.1 ug/ml, 6 hours post wound
  Percentage of 1 hour post wound size: 85%
0.1 ug/ml, 24 hours post wound
  Percentage of 1 hour post wound size: 69%
0.1 ug/ml, 30 hours post wound
  Percentage of 1 hour post wound size: 43%
0.1 ug/ml, 48 hours post wound
  Percentage of 1 hour post wound size: 2%
0.1 ug/ml, 54 hours post wound
  Percentage of 1 hour post wound size: 0%
0.1 ug/ml, 72 hours post wound
  Percentage of 1 hour post wound size: 0%
10 μg/ml eye drop three times daily, 0 hours post wound
  corneal wound size: 88.4 ± 31.6 mm^2
10 μg/ml eye drop three times daily, 6 hours post wound
  corneal wound size: 74.0 ± 14.7 mm^2
10 μg/ml eye drop three times daily, 24 hours post wound
  corneal wound size: 51.4 ± 9.3 mm^2
10 μg/ml eye drop three times daily, 30 hours post wound
  corneal wound size: 37.7 ± 9.4 mm^2
10 μg/ml eye drop three times daily, 48 hours post wound
  corneal wound size: 0.00 ± 0.07 mm^2
10 μg/ml eye drop three times daily, 54 hours post wound
  corneal wound size: 0.00 ± 0.00 mm^2
10 μg/ml eye drop three times daily, 72 hours post wound
  corneal wound size: 0.00 ± 0.00 mm^2
10 ug/ml, 0 hours post wound
  Percentage of 1 hour post wound size: 100%
10 ug/ml, 6 hours post wound
  Percentage of 1 hour post wound size: 84%
10 ug/ml, 24 hours post wound
  Percentage of 1 hour post wound size: 58%
10 ug/ml, 30 hours post wound
  Percentage of 1 hour post wound size: 43%
10 ug/ml, 48 hours post wound
  Percentage of 1 hour post wound size: 0%
10 ug/ml, 54 hours post wound
  Percentage of 1 hour post wound size: 0%
10 ug/ml, 72 hours post wound
  Percentage of 1 hour post wound size: 0%
